Three compounds from US5565330A, “Method for removing N-terminal dipeptides from precursor polypeptides with dipeptidylaminopeptidase from Dictyostelium discoideum” (Eli Lilly and Company, priority 1995, dated 1996) can be followed below.

The target of assay [1] is T1, bovine spleen DAP-I (Bos taurus, UniProt Q3ZCJ8).
T1 construct: bovine spleen DAP-I; from tissue; host or cells: bovine spleen
Briefly: Inhibition of GFpNA cleavage by sulfhydryl modifying agents. Conditions: 5 mM inhibitor, 15 minutes at room temperature, pH 7; then 4 mM GFpNA, pH 3.5, 37 degrees; read-out: decrease (inhibition) of bovine DAP-I's rate of cleavage of GFpNA. The format is biochemical. As for the experimental part: (§1) dDAP activity is normally monitored by following the cleavage of the chromogenic substrate Gly-Phe para-nitroanilide (GF-pNA). Typically the assay is performed by diluting the enzyme 11 fold into 1.0 ml of 4 mM GFpNA adjusted to pH 3.5. The rate of cleavage of GF dipeptide was monitored at 37° C. by measuring the increase in absorbance at 405 nm. One unit of activity leads to a 0.90 OD change per minute under these conditions. Unit/ml estimates can be made assuming an extinction coefficient for free pNA of 9.9 mM-1 cm-1 at 405 nm.
(§2) The inhibition profile of dDAP toward the substrate GFpNA was compared to that of bovine DAP-I using iodoacetamide and potassium tetrathionate, sulfhydryl modifying agents known to inhibit the activity of DAP-I. Samples of dDAP or bovine spleen DAP-I were incubated for 15 minutes at room temperature in final concentrations of 0, 0.5, 5.0 or 50 mM of either inhibitor at pH 7 in 100 mM Tris buffer. The incubated solutions were then diluted 21-fold with 4 mM GFpNA, pH 3.5. The rate of cleavage was monitored by measuring the increase in absorbance at 405 nm at 37 degrees centigrade. Bovine DAP-I's rate of cleavage of GFpNA was decreased more than 90% by the exposure to 5 mM iodoacetamide and was 95% inhibited by 5 mM potassium tetrathionate.

For assay [2], the system named is dDAP. Described as above. It counts as biochemical, Dictyostelium discoideum. Conditions: 0.5, 5.0 or 50 mM inhibitor, 15 minutes at room temperature, pH 7; then 4 mM GFpNA, pH 3.5. As for the experimental part: as §1, §2
For assay [3], the system named is Met(O)-Arg-hPI. As to the kind of experiment: Conversion of oxidized methionyl Met(O)-Arg-hPI (HPLC). It counts as biochemical, human. Particulars: X is Arg, Phe and Tyr. As to the method:
Met-Arg-Human Proinsulin (Met-Arg-hPI) was produced as an insoluble protein in the cytoplasm of E. coli. The insoluble protein was solubilized in 7M urea. The protein was purified by ion exchange chromatography. The Met-Arg-hPI was sulfitolyzed, solvent exchanged and folded in order to form the native disulfide bond pairs and native tertiary structure. The material was further purified using reverse phase chromatography.
The Met-Arg-hPI was about 24 mg/ml (in approximately 20 mM glycine buffer, pH 3.5). About 2.4 mg of this material was incubated with 0.19 milliunits of dDAP at pH 3.5. The reaction was allowed to proceed at room temperature. Periodically, aliquots were removed and diluted with 10% phosphoric acid. This material was injected onto a neutral reverse phase HPLC system to monitor for the disappearance of Met-Arg-hPI or Met(O)-Arg-hPI and the subsequent production of hPI. In addition, aliquots were diluted into an appropriate diluent to allow for HPLC monitoring of appearance of either the Met-Arg or Met(O)-Arg dipeptides. Approximately 60% of the Met-Arg-hPI was converted to hPI in 8 hours. […] The rate of cleavage of both substrates was similar. […] The ability of dDAP to cleave the oxidized Met(O)-X substrate has distinct processing advantages over enzymes unable to perform this cleavage.

Assay [4] is described as follows: Cleavage of Arg-Arg-β-naphthylamide (fluorescence). Conditions: 0.25 mM RR-BNA, pH 3.5 or pH 5.0, about 15 milliunit/ml enzyme. It counts as biochemical. As to the method:
(§3) About 0.25 mM RR-BNA or 0.25 mM Benzyloxycarbonyl-RR-BNA (Z-RR-BNA) was prepared in either 100 mM acetic acid, pH 3.5, or 100 mM citrate buffer, pH 5.0. To 2 ml of substrate was added dDAP or bovine DAP-I (about 15 milliunit/ml solution). Rates of cleavage (monitoring fluorescence increase at 410 nm with excitation at 340 nm) were monitored. […] The pH optimum for cleavage of RR-BNA was probed by monitoring the rate of RR-BNA cleavage using a buffer system consisting of 50 mM acetic acid and 50 mM citrate. Various pHs were achieved using HCl or NaOH and 1.5 ml volumes were made 2.0 with 0.5 ml of a 1 mM stock solution of RR-BNA (final concentration of about 0.25 mM). dDAP was added (to about 15 mU/ml) and the rates of cleavage were determined.

The nature of assay [5]: Cleavage of blocked Benzyloxycarbonyl-RR-BNA (fluorescence). Particulars: 0.25 mM Z-RR-BNA, pH 3.5 or pH 5.0. The format is biochemical. As to the method: as §3

The term inhibition denotes the relative decrease from the control value, in per cent.

T1 sequence (Q3ZCJ8 231-394 limits assumed): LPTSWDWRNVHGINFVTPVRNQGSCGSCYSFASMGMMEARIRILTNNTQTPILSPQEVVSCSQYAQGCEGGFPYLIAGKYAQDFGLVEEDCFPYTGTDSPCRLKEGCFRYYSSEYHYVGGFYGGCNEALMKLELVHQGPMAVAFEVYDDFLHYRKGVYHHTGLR
T1 sequence (Q3ZCJ8 395-463 limits assumed): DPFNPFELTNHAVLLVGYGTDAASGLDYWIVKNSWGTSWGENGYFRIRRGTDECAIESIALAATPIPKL
T1 sequence (Q3ZCJ8 25-143 limits assumed): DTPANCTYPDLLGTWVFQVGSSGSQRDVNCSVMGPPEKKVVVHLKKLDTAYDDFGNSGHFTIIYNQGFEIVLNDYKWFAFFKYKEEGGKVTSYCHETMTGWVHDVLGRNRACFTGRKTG

`NC(=O)CI` [iodoacetamide]: in assay [1], the inhibition at 5000 µM was more than 90%. In addition, the “inhibition of dDAP cleavage of GFpNA” value in assay [2] is “no evidence of significant inhibition”.
With `O=S(=O)([O-])SSS(=O)(=O)[O-].[K+].[K+]` [potassium tetrathionate], in assay [1], the inhibition at 5000 µM was 95%. Moreover, in assay [2], the “inhibition of dDAP cleavage of GFpNA” value is reported as “no evidence of significant inhibition”.
As for “bovine DAP-I: bovine spleen dipeptidylaminopeptidase I, comparison enzyme”, the “cleavage of Met(O)-X-derivatives of hPI” value in assay [3] is recorded as “unable to cleave”. In addition, the “cleavage of RR-BNA” value in assay [4] was “unable to cleave”. Also, in assay [5], the “cleavage of blocked amino group Z-RR-BNA” value is on record as “unable to cleave”.
